This is an account of results in patent publication US10954228B2 (NATIONAL INSTITUTES OF HEALTH, UNITED STATES DEPARTMENT OF …, priority 2016, dated 2021).

One assay has as its system MiaPaCa2 cells. Kind of assay: cell-based HT lactate assay by colorimetric/fluorometric detection (cellular inhibition of lactate production). The following applies: Homo sapiens, MIA PaCa-2, assay of Example 6. On the procedure: This example describes a cell-based metabolite assay by colorimetric/fluorometric detection employed in the characterization of a compound of formula (I) in an embodiment of the invention.
Cell-based HT Lactate assay is a miniaturized Biovision Lactate Colorimetric/Fluorometric Assay Kit (Cat #K607-100). The assay is roughly a 3.5 hour assay run in a 1536 plate format. Cell number optimization should be run for each cell line to achieve an optimal number in which lactate production equals roughly 90% of the standard curve range. Cell number per well optimization has been performed with the following cell lines: MiaPaCa2—500 cells/well, SNU398—500 cells/well, and P493—500 cells/well.

A further assay deals with Human LDHA (Homo sapiens (Human), UniProt P00338). Kind of assay: human LDHA primary biochemical assay. The following applies: biochemical LDHA inhibitory activity, assay of Example 1; activity level classes defined in nM. In a few lines: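 Human LDHA at 2 nM with 0.06 mM NADH and 0.2 mM sodium pyruvate in 200 mM Tris HCl pH 7.4, 100 μM EDTA, 0.01% TWEEN-20 (final). NADH consumption coupled to resazurin/diaphorase (0.037 mM; 0.133 mg/mL); inhibition read by fluorescence.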

For `CC1CCCC=C1c1cc(-c2nn(-c3nc(C(=O)O)cs3)c(CC3CC3)c2Cc2ccc(S(N)(=O)=O)c(F)c2)ccc1F` (stereo not shown) [Compound 103, 2-(5-(cyclopropylmethyl)-3-(6-fluoro-2′-methyl-2′,3′,4′,5′-tetrahydro-[1,1′-biphenyl]-3-yl)-4-(3-fluoro-4-sulfamoylbenzyl)-1H-pyrazol-1-yl)thiazole-4-carboxylic acid], the IC50 (commonly the concentration that inhibits the measured activity by half) was < 1000 nM with MiaPaCa2 cells and < 100 nM against Human LDHA.

Consider `COC1CC=C(c2cc(-c3nn(-c4nc(C(=O)O)cs4)c(CC4CC4)c3Cc3ccc(S(N)(=O)=O)c(F)c3)ccc2F)CC1` (stereo not shown) [Compound 104, 2-(5-(cyclopropylmethyl)-3-(6-fluoro-4′-methoxy-2′,3′,4′,5′-tetrahydro-[1,1′-biphenyl]-3-yl)-4-(3-fluoro-4-sulfamoylbenzyl)-1H-pyrazol-1-yl) thiazole-4-carboxylic acid], for which the figures for the IC50 with MiaPaCa2 cells and against Human LDHA were < 1000 nM and < 100 nM, respectively.

On to `NS(=O)(=O)c1ccc(Cc2c(-c3ccc(F)c(C4=Cc5ccccc5C4)c3)nn(-c3nc(C(=O)O)cs3)c2CC2CC2)cc1F` [Compound 105, 2-(5-(cyclopropylmethyl)-3-(4-fluoro-3-(1H-inden-2-yl)phenyl)-4-(3-fluoro-4-sulfamoylbenzyl)-1H-pyrazol-1-yl)thiazole-4-carboxylic acid], for which the IC50 was < 1000 nM in the assay on MiaPaCa2 cells and < 100 nM on Human LDHA.

Regarding `CC1(C)CC=C(c2cc(-c3nn(-c4nc(C(=O)O)cs4)c(CC4CC4)c3Cc3ccc(S(N)(=O)=O)c(F)c3)ccc2F)CC1` [Compound 106, 2-(5-(cyclopropylmethyl)-3-(6-fluoro-4′,4′-dimethyl-2′,3′,4′,5′-tetrahydro-[1,1′-biphenyl]-3-yl)-4-(3-fluoro-4-sulfamoylbenzyl)-1H-pyrazol-1-yl) thiazole-4-carboxylic acid], the IC50 is < 1000 nM in the assay on MiaPaCa2 cells and < 100 nM on Human LDHA.

On to `NS(=O)(=O)c1ccc(Cc2c(-c3ccc(F)c(C4=CCC(F)(F)CC4)c3)nn(-c3nc(C(=O)O)cs3)c2CC2CC2)cc1F` [Compound 107, 2-(5-(cyclopropylmethyl)-4-(3-fluoro-4-sulfamoylbenzyl)-3-(4′,4′,6-trifluoro-2′,3′,4′,5′-tetrahydro-[1,1′-biphenyl]-3-yl)-1H-pyrazol-1-yl)thiazole-4-carboxylic acid], for which the figures for the IC50 with MiaPaCa2 cells and against Human LDHA were < 1000 nM and < 100 nM, respectively.

Consider `NS(=O)(=O)c1ccc(Cc2c(-c3ccc(F)c(C4=CCC5(CC4)CC5)c3)nn(-c3nc(C(=O)O)cs3)c2CC2CC2)cc1F` [Compound 108, 2-(5-(cyclopropylmethyl)-3-(4-fluoro-3-(spiro[2.5]oct-5-en-6-yl)phenyl)-4-(3-fluoro-4-sulfamoylbenzyl)-1H-pyrazol-1-yl)thiazole-4-carboxylic acid], for which the IC50 in the assay on MiaPaCa2 cells is < 1000 nM; at Human LDHA it was < 100 nM.

For the compound `CC(C)(C)c1ccc(C#Cc2cc(-c3nn(-c4nc(C(=O)O)cs4)c(CC4CC4)c3Cc3ccc(S(N)(=O)=O)c(F)c3)ccc2F)s1` [Compound 110, 2-(3-(3-((5-(tert-butyl)thiophen-2-yl)ethynyl)-4-fluorophenyl)-5-(cyclopropylmethyl)-4-(3-fluoro-4-sulfamoylbenzyl)-1H-pyrazol-1-yl)thiazole-4-carboxylic acid], the IC50 was < 1000 nM in the assay on MiaPaCa2 cells and 100 to 1000 nM on Human LDHA.

For `Cc1ncc(C#Cc2cc(-c3nn(-c4nc(C(=O)O)cs4)c(CC4CC4)c3Cc3ccc(S(N)(=O)=O)c(F)c3)ccc2F)s1` [Compound 111, 2-(5-(cyclopropylmethyl)-3-(4-fluoro-3-((2-methylthiazol-5-yl)ethynyl)phenyl)-4-(3-fluoro-4-sulfamoylbenzyl)-1H-pyrazol-1-yl)thiazole-4-carboxylic acid], the IC50 is < 1000 nM in the assay on MiaPaCa2 cells and < 100 nM against Human LDHA.

For `Cc1ccc(C#Cc2cccc(-c3nn(-c4nc(C(=O)O)cs4)c(CC4CC4)c3Cc3ccc(S(N)(=O)=O)c(F)c3)c2)s1` [Compound 112, 2-(5-(cyclopropylmethyl)-4-(3-fluoro-4-sulfamoylbenzyl)-3-(3-((5-methylthiophen-2-yl)ethynyl)phenyl)-1H-pyrazol-1-yl)thiazole-4-carboxylic acid], the IC50 was < 1000 nM with MiaPaCa2 cells and < 100 nM against Human LDHA.

For `Cc1ccc(C#Cc2cc(-c3nn(-c4nc(C(=O)O)cs4)c(CCC4CC4)c3Cc3ccc(S(N)(=O)=O)c(F)c3)ccc2F)s1` [Compound 113, 2-(5-(2-cyclopropylethyl)-3-(4-fluoro-3-((5-methylthiophen-2-yl)ethynyl)phenyl)-4-(3-fluoro-4-sulfamoylbenzyl)-1H-pyrazol-1-yl)thiazole-4-carboxylic acid], the concentration for half-maximal inhibition (IC50) is < 1000 nM with MiaPaCa2 cells and < 100 nM on Human LDHA.

On to `Cc1cnc(C#Cc2cc(-c3nn(-c4nc(C(=O)O)cs4)c(CC4CC4)c3Cc3ccc(S(N)(=O)=O)c(F)c3)ccc2F)s1` [Compound 114, 2-(5-(cyclopropylmethyl)-3-(4-fluoro-3-((5-methylthiazol-2-yl)ethynyl)phenyl)-4-(3-fluoro-4-sulfamoylbenzyl)-1H-pyrazol-1-yl) thiazole-4-carboxylic acid], for which the figures for the IC50 in the assay on MiaPaCa2 cells and against Human LDHA were < 1000 nM and < 100 nM, respectively.

Consider `Cc1ccc(C#Cc2cccc(-c3nn(-c4nc(C(=O)O)cs4)c(CCC4CC4)c3Cc3ccc(S(N)(=O)=O)c(F)c3)c2)s1` [Compound 115, 2-(5-(2-cyclopropylethyl)-4-(3-fluoro-4-sulfamoylbenzyl)-3-(3-((5-methylthiophen-2-yl)ethynyl)phenyl)-1H-pyrazol-1-yl)thiazole-4-carboxylic acid], for which the IC50 was < 1000 nM with MiaPaCa2 cells and < 100 nM against Human LDHA.

On to `NS(=O)(=O)c1ccc(Cc2c(-c3cccc(C#Cc4ccc(C5CC5)s4)c3)nn(-c3nc(C(=O)O)cs3)c2CC2CC2)cc1F` [Compound 117, 2-(5-(cyclopropylmethyl)-3-(3-((5-cyclopropylthiophen-2-yl)ethynyl)phenyl)-4-(3-fluoro-4-sulfamoylbenzyl)-1H-pyrazol-1-yl)thiazole-4-carboxylic acid], for which the half-inhibitory concentration (IC50) is < 1000 nM in the assay on MiaPaCa2 cells and 100 to 1000 nM against Human LDHA.

As for `NS(=O)(=O)c1ccc(Cc2c(-c3cccc(C#Cc4ccc(Cl)s4)c3)nn(-c3nc(C(=O)O)cs3)c2CC2CC2)cc1F` [Compound 118, 2-(3-(3-((5-chlorothiophen-2-yl)ethynyl)phenyl)-5-(cyclopropylmethyl)-4-(3-fluoro-4-sulfamoylbenzyl)-1H-pyrazol-1-yl)thiazole-4-carboxylic acid], the IC50 was < 1000 nM in the assay with MiaPaCa2 cells and < 100 nM at Human LDHA.

On to `Cc1ccc(/C=C/c2cccc(-c3nn(-c4nc(C(=O)O)cs4)c(CC4CC4)c3Cc3ccc(S(N)(=O)=O)c(F)c3)c2)s1` [Compound 119, (E)-2-(5-(cyclopropylmethyl)-4-(3-fluoro-4-sulfamoylbenzyl)-3-(3-(2-(5-methylthiophen-2-yl)vinyl)phenyl)-1H-pyrazol-1-yl)thiazole-4-carboxylic acid], for which the IC50 in the assay on MiaPaCa2 cells is < 1000 nM; against Human LDHA, < 100 nM.

For `Cc1ccsc1C#Cc1cccc(-c2nn(-c3nc(C(=O)O)cs3)c(CC3CC3)c2Cc2ccc(S(N)(=O)=O)c(F)c2)c1` [Compound 120, 2-(5-(cyclopropylmethyl)-4-(3-fluoro-4-sulfamoylbenzyl)-3-(3-((3-methylthiophen-2-yl)ethynyl)phenyl)-1H-pyrazol-1-yl) thiazole-4-carboxylic acid], the IC50 is < 1000 nM in the assay with MiaPaCa2 cells and < 100 nM against Human LDHA.

In the case of `NS(=O)(=O)c1ccc(Cc2c(-c3cccc(C#Cc4ccc(C(F)F)s4)c3)nn(-c3nc(C(=O)O)cs3)c2CC2CC2)cc1F` [Compound 121, 2-(5-(cyclopropylmethyl)-3-(3-((5-(difluoromethyl)thiophen-2-yl)ethynyl)phenyl)-4-(3-fluoro-4-sulfamoylbenzyl)-1H-pyrazol-1-yl)thiazole-4-carboxylic acid], the IC50 was < 1000 nM in the assay on MiaPaCa2 cells and < 100 nM against Human LDHA.

Turning to `Cc1cnc(C#Cc2cccc(-c3nn(-c4nc(C(=O)O)cs4)c(CC4CC4)c3Cc3ccc(S(N)(=O)=O)c(F)c3)c2)o1` [Compound 122, 2-(5-(cyclopropylmethyl)-4-(3-fluoro-4-sulfamoylbenzyl)-3-(3-((5-methyloxazol-2-yl)ethynyl)phenyl)-1H-pyrazol-1-yl)thiazole-4-carboxylic acid], the IC50 in the assay on MiaPaCa2 cells was < 1000 nM; on Human LDHA, < 100 nM.

With `Cc1ccc(C#Cc2cccc(-c3nn(-c4nc(C(=O)O)cs4)c(CC4(C)CC4)c3Cc3ccc(S(N)(=O)=O)c(F)c3)c2)s1` [Compound 123, 2-(4-(3-fluoro-4-sulfamoylbenzyl)-5-((1-methylcyclopropyl)methyl)-3-(3-((5-methylthiophen-2-yl)ethynyl)phenyl)-1H-pyrazol-1-yl)thiazole-4-carboxylic acid], the figures for the IC50 in the assay on MiaPaCa2 cells and at Human LDHA were < 1000 nM and < 100 nM, respectively.

On to `NS(=O)(=O)c1ccc(Cc2c(-c3cccc(C#Cc4ccc(C(F)(F)F)s4)c3)nn(-c3nc(C(=O)O)cs3)c2CC2CC2)cc1F` [Compound 124, 2-(5-(cyclopropylmethyl)-4-(3-fluoro-4-sulfamoylbenzyl)-3-(3-((5-(trifluoromethyl)thiophen-2-yl)ethynyl)phenyl)-1H-pyrazol-1-yl)thiazole-4-carboxylic acid], for which the IC50 in the assay on MiaPaCa2 cells is < 1000 nM; against Human LDHA, 100 to 1000 nM.
